Legend:
EGFR T790M/L858R = target: T1, EGFR T790M/L858R (Homo sapiens, UniProt P00533, L858R/T790M); experiment: Mutant EGFR T790M/L858R activity inhibition assay (Caliper mobility shift); type: biochemical; conditions: read-out: enzyme activity inhibition (IC50) EGFR T790M/L858R
T1 construct: purchased Invitrogen PR8911A
Experimental: The assay procedure is as follows. […] 5 μl of the compound dissolved in 10% DMSO at a concentration of 5-fold of the final reaction concentration was added to a 384 well plate. 5 μl of 10% DMSO was used in a no-compound control well, while 5 μl of a kinase buffer was used in a no-enzyme activity control well. […] The conversion rate was read on Caliper EZ Reader II (Caliper Life Sciences). The conversion rate was then converted to inhibitory rate.
As used herein, “max” refers to the conversion rate of the DMSO no-compound control well, and “min” refers to the conversion rate of the no-enzyme activity control well. A curve was obtained by plotting the inhibitory rate as a function of the compound concentration. The XLFit excel add-in version 4.3.1 software was used to fit the curve and calculate the IC50. Inhibitory rate %=(max−conversion rate)/(max−min)×100.

H1975 = experiment: Inhibition assay on tumor cell proliferation (CellTiter-Glo), H1975; type: cell-based, Human; conditions: H1975 (L858R and T790M EGFR double mutation), 72 hours, 10% bovine serum
LOVO = experiment: Inhibition assay on tumor cell proliferation (CellTiter-Glo), LOVO; type: cell-based, Human; conditions: LOVO (wild-type EGFR), 72 hours, 10% bovine serum
Experimental: (§1) By using a CellTiter-Glo luminescence cell viability test kit (Promega, # G7572), the content of adenosine triphosphate (ATP) was determined to assess the cell viability.
(§2) Human colon cancer cell line LOVO and human non-small-cell lung cancer H358 express wild-type EGFR. Human non-small-cell lung cancer cell line HCC827 carries deletion mutation in exon 19 (ex19del). Those cell lines are purchased from Shanghai Fudan IBS Cell Resource Center and American Tissue Culture Collection (ATCC).
(§3) The assay procedure is as follows. The cells in a cell culture plate were digested with a pancreatic enzyme, re-suspended in a DPBS culture medium, and had the cell density counted by Scepter automated cytometer (Millipore # PHCC00000). The cells were diluted to a solution of 44,000 cells per ml. The cell solution with adjusted density was added to the cell assay plate at 90 microliters per well. The plate was placed in an incubator with 5% CO2 at 37° C. for 24 hours of incubation, and then added with different concentrations of subject compounds. The cells were incubated for 72 hours with the compounds in presence of 10% bovine serum. The content of ATP was determined by a CellTiter-Glo® Luminescent Cell Viability Assay kit (see the manufacturer's instruction for details) to evaluate cell-growth inhibition.
(§4) Briefly, 30 μl of CellTiter-Glo® reagent was added to each well, and then shaken for 10 minutes to induce cell lysis. The fluorescent signal was detected and recorded by Fluoroskan Ascent FL (Thermo). The max signal value was obtained from the cells treated by dimethyl sulfoxide for 72 hours. The min signal value was obtained from the medium alone (the number of the cells was 0). Inhibitory rate %=(max signal value−compound signal value)/(max signal value−min signal value)×100. The data was processed by GraphPad Prism V5.0 software (GraphPad Software, San Diego, Calif.). Sigmoidal dose-response curve fitting was performed to calculate the IC50 value.

H358 = experiment: Inhibition assay on tumor cell proliferation (CellTiter-Glo), H358; type: cell-based, Human; conditions: H358 (wild-type EGFR), 72 hours, 10% bovine serum
Experimental: as §1, §2, §3, §4

[1] = Pharmacokinetics in rats after oral administration; type: in vivo, SD rats; conditions: for AUC(0-inf) / Cmax / Tmax / half-life / AUC(0-t): male, SD, rat, 20 mg/kg, plasma; for AUC(0-t): read-out: AUC0-24
Experimental: Male SD rats weighing 250-300 g, or male beagles weighing 9-10 kg, were fasted overnight before the experiment. The object compounds were dissolved in 30% sulfobutylated beta-cyclodextrin (SBE-β-CD), and orally administrated to the rats at a dose of 20 mg/kg or to the beagles at a dose of 5 mg/kg. Blood samples were taken at 15 minutes, 30 minutes, 1 hour, 2 hours, 3 hours, 4 hours, 6 hours, 8 hours and 24 hours after administration. 0.3 ml of blood was collected at every time point, placed in a centrifuge tube containing K2-EDTA (ethylenediamine tetraacetic acid dipotassium) and centrifuged (2,000 g, 10 minutes, 4° C.) to collect plasma, which was then stored in an ultra cold storage freezer at −80° C. 50 μL of plasma sample was mixed with 5 μL of internal standard (IS), and then extracted with ethyl acetate. After vacuum drying, the residue was re-dissolved in acetonitrile. The sample was filtered and injected into LC-MS/MS for analysis.

T1 sequence (P00533 25-1210 T790M/L858R): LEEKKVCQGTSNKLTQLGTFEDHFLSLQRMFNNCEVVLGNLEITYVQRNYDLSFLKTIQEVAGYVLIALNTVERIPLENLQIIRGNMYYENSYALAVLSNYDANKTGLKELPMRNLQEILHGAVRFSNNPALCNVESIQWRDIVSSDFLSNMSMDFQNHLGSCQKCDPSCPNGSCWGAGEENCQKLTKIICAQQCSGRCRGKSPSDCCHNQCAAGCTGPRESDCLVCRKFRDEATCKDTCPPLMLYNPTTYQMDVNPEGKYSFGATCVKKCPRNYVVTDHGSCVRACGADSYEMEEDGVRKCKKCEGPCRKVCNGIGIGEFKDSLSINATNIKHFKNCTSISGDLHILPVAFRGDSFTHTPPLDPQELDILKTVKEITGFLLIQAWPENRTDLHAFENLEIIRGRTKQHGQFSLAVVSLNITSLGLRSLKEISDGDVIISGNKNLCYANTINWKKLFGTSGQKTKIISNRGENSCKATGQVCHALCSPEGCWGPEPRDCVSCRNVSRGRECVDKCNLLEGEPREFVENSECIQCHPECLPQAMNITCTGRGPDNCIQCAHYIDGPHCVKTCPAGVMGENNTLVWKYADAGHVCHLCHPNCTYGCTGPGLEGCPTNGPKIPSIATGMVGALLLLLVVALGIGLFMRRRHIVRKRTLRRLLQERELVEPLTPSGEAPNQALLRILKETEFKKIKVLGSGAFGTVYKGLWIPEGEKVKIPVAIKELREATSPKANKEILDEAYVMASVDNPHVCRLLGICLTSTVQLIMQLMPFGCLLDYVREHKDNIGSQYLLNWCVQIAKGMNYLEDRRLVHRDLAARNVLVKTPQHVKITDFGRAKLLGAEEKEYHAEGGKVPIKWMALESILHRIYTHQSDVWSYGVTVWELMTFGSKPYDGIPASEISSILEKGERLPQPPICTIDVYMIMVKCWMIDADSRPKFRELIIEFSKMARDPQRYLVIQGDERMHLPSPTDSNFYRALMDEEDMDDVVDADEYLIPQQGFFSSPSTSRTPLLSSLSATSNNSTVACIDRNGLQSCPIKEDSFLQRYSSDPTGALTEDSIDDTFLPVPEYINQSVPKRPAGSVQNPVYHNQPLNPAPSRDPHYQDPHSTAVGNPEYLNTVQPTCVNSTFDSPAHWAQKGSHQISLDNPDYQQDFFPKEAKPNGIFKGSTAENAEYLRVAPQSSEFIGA

IC50 (EGFR T790M/L858R)	IC50 (H1975; Homo sapiens, NCI-H1975)	IC50 (H358; Homo sapiens, NCI-H358)	melting point	Compound	other results
< 1 nM	< 10 nM	100 to 1000 nM	–	C=CC(=O)Nc1cc(Nc2ncc(C)c(-n3ccc4ccccc43)n2)c(OC)cc1N(C)CCN(C)C [Compound 8, N-(5-((4-(1H-indol-1-yl)-5-methylpyrimidin-2-yl)amino)-2-((2-(dimethylamino)ethyl)(methyl)amino)-4-methoxyphenyl)acrylamide]	IC50 (LOVO; Homo sapiens): > 1000 nM
1 to 10 nM	< 10 nM	100 to 1000 nM	–	C=CC(=O)Nc1cc(Nc2nccc(-n3ccc4cc([N+](=O)[O-])ccc43)n2)c(OC)cc1N(C)CCN(C)C [Compound 34, N-{2-[(2-Dimethylamino-ethyl)-methyl-amino]-4-methoxy-5-[4-(5-nitro-indol-1-yl)-pyrimidin-2-ylamino]-phenyl}-acryl amide]	IC50 (LOVO; Homo sapiens): > 1000 nM
< 1 nM	< 10 nM	100 to 1000 nM	187 to 188 °C	C=CC(=O)Nc1cc(Nc2nccc(-n3c(=O)n(CC=C(C)C)c4ccccc43)n2)c(OC)cc1N(C)CCN(C)C [Compound 62, N-(2-((2-(dimethylamino)ethyl)(methyl)amino)-4-methoxy-5-(4-(3-(3-methylbut-2-enyl)-2-oxo-2,3-dihydro-1H-benzo[d]imidazol-1-yl)pyrimidin-2-ylamino)phenyl)acrylamide]	absorption / blood exposure after oral administration (in words) [1]: well absorbed, with high blood exposure; AUC(0-inf) [1]: 920 ng·h/mL; Cmax [1]: 84 ng/mL; Tmax [1]: 3.7 h; half-life [1]: 6.8 h; AUC(0-t) [1]: 834 ng·h/mL
1 to 10 nM	100 to 1000 nM	100 to 1000 nM	–	COc1cc(N(C)CCN(C)C)c(NC(=O)/C=C/CN2CCCCC2)cc1Nc1nccc(-n2ccc3ccccc32)n1 [Compound 70, (E)-N-(5-(4-(1H-indol-1-yl)pyrimidin-2-ylamino)-2-((2-(dimethylamino)ethyl)(methyl)amino)-4-methoxyphenyl)-4-(piperidin-1-yl)but-2-enamide]	IC50 (LOVO; Homo sapiens): 100 to 1000 nM
1 to 10 nM	10 to 50 nM	–	81 to 83 °C	C=CC(=O)Nc1cc(Nc2nccc(-n3ccc4ccccc43)n2)c(OC)cc1N1CC(N(C)C)C1 [Compound 77, N-(5-(4-(1H-indol-1-yl)pyrimidin-2-ylamino)-2-(3-(dimethylamino)azetidin-1-yl)-4-methoxyphenyl)acrylamide]	IC50 (LOVO; Homo sapiens): > 1000 nM
< 1 nM	< 10 nM	100 to 1000 nM	127 to 129 °C	C=CC(=O)Nc1cc(Nc2nccc(-n3ccc4nc(Cl)ccc43)n2)c(OC)cc1N(C)CCN(C)C [Compound 124, N-(5-((4-(5-chloro-1H-pyrrolo[3,2-b]pyridin-1-yl)pyrimidin-2-yl)amino)-2-((2-(dimethylamino)ethyl)(methyl)amino)-4-methoxyphenyl)acrylamide]	absorption / blood exposure after oral administration (in words) [1]: well absorbed, with high blood exposure; AUC(0-inf) [1]: 1790 ng·h/mL; Cmax [1]: 327 ng/mL; Tmax [1]: 1.7 h; half-life [1]: 6.1 h; AUC(0-t) [1]: 1700 ng·h/mL
< 1 nM	< 10 nM	100 to 1000 nM	190 to 193 °C	C=CC(=O)Nc1cc(Nc2nccc(-n3c(=O)n(C)c4ccccc43)n2)ccc1N(C)CCN(C)C [Compound 125, N-(2-((2-(dimethylamino)ethyl)(methyl)amino)-5-((4-(3-methyl-2-oxo-2,3-dihydro-1H-benzo[d]imidazol-1-yl)pyrimidin-2-yl)amino)phenyl)acrylamide]	–
< 1 nM	< 10 nM	> 1000 nM	179 to 181 °C	C=CC(=O)Nc1cc(Nc2nccc(-n3c(=O)n(C(C)C)c4ccccc43)n2)c(C)cc1N(C)CCN(C)C [Compound 127, N-(2-((2-(dimethylamino)ethyl)(methyl)amino)-5-((4-(3-isopropyl-2-oxo-2,3-dihydro-1H-benzo[d]imidazol-1-yl)pyrimidin-2-yl)amino)-4-methylphenyl)acrylamide]	–
< 1 nM	< 10 nM	100 to 1000 nM	85 to 90 °C	C=CC(=O)Nc1cc(Nc2nccc(-n3c(=O)n(C(C)C)c4ccccc43)n2)ccc1N(C)CCN(C)C [Compound 128, N-(2-((2-(dimethylamino)ethyl)(methyl)amino)-5-((4-(3-isopropyl-2-oxo-2,3-dihydro-1H-benzo[d]imidazol-1-yl)pyrimidin-2-yl)amino)phenyl)acrylamide]	–
1 to 10 nM	< 10 nM	> 1000 nM	92 to 95 °C	C=CC(=O)Nc1cc(Nc2ncc(OC)c(-n3c(=O)n(C(C)C)c4ccccc43)n2)c(OC)cc1N(C)CCN(C)C [Compound 133, N-(2-((2-(dimethylamino)ethyl) (methyl)amino)-5-((4-(3-isopropyl-2-oxo-2,3-dihydro-1H-benzo[d]imidazol-1-yl)-5-methoxypyrimidin-2-yl)amino)-4-methoxyphenyl)acrylamide]	–
1 to 10 nM	10 to 50 nM	> 1000 nM	114.6 to 116.2 °C	C=CC(=O)Nc1cc(Nc2ncc(N(C)C)c(-n3c(=O)n(C(C)C)c4ccccc43)n2)c(OC)cc1N(C)CCN(C)C [Compound 135, N-(5-((5-(dimethylamino)-4-(3-isopropyl-2-oxo-2,3-dihydro-1H-benzo[d]imidazol-1-yl)pyrimidin-2-yl)amino)-2-((2-(dimethylamino)ethyl)(methyl)amino)-4-methoxyphenyl)acrylamide]	–
1 to 10 nM	< 10 nM	100 to 1000 nM	95 to 98 °C	C=CC(=O)Nc1cc(Nc2nccc(-n3c(=O)n(C(C)C)c4cc(OC)ccc43)n2)c(OC)cc1N(C)CCN(C)C [Compound 138, N-(2-((2-(dimethylamino)ethyl)(methyl)amino)-5-((4-(3-isopropyl-5-methoxy-2-oxo-2,3-dihydro-1H-benzo[d]imidazol-1-yl)pyrimidin-2-yl)amino)-4-methoxyphenyl)acrylamide]	–
< 1 nM	< 10 nM	100 to 1000 nM	115 to 117 °C	C=CC(=O)Nc1cc(Nc2nccc(-n3c(=O)n(C(C)C)c4cc(O)ccc43)n2)c(OC)cc1N(C)CCN(C)C [Compound 139, N-(2-((2-(dimethylamino)ethyl)(methyl)amino)-5-((4-(5-hydroxy-3-isopropyl-2-oxo-2,3-dihydro-1H-benzo[d]imidazol-1-yl)pyrimidin-2-yl)amino)-4-methoxyphenyl)acrylamide]	–

Compound	IC50 (EGFR T790M/L858R)	IC50 (H1975; Homo sapiens, NCI-H1975)	IC50 (H358; Homo sapiens, NCI-H358)	melting point	other results
C=CC(=O)Nc1cc(Nc2nccc(-n3c(=O)n(C)c4cc(OC)ccc43)n2)c(OC)cc1N(C)CCN(C)C [Compound 53, N-(2-((2-(dimethylamino)ethyl) (methyl)amino)-4-methoxy-5-((4-(5-methoxy-3-methyl-2-oxo-2,3-dihydro-1H-benzo[d]imidazol-1-yl)pyrimidin-2-yl)amino)phenyl)acryl amide]	< 1 nM	–	–	–	IC50 (H1975): 10 to 50 nM; IC50 (LOVO): > 1000 nM; IC50 (H358): 50 to 100 nM
